Test results taken from paper PMC9064607 (Biochemistry, 2022).

Biological target: T1, Peptidylglycine monooxygenase (PHM) (Rattus norvegicus, UniProt P14925)
T1 sequence (P14925 42-356): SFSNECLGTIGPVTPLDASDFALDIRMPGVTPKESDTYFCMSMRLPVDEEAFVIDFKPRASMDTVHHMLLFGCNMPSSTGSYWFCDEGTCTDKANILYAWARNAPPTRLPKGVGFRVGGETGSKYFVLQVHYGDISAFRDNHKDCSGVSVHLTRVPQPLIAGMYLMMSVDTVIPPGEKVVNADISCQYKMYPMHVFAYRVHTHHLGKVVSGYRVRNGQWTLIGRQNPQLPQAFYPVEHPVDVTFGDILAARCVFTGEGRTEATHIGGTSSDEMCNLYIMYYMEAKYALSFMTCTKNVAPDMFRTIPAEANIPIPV
Assay: chemical-quench product formation versus ascorbate, fitted to a binding event
Type: biochemical

O=C1O[C@H]([C@@H](O)CO)C(O)=C1O [ascorbate]
Kd: 117 µM
